Tests used:
[1] = test system: S. aureus strain SafabF/GFP; experiment: Liquid GFP reporter assay for fabF antisense revertants (Relative Fluorescence Index); format: cell-based, Staphylococcus aureus; conditions: for change of RFI with increasing xylose concentration: 0, 7 and 14 mM xylose, drug concentrations approximating 50% inhibition of growth in no-xylose cells, 16 hours
Text: The green fluorescent protein (GFP) reporter gene was used to identify fabF antisense revertants in liquid culture by the following method: S. aureus containing a plasmid encoding the antisense fabF DNA was used to develop an inducible GFP reporter system, where the GFP gene is transcriptionally silent until the fabF antisense containing plasmid DNA is deleted or rearranged. A plasmid, pM310, was constructed that consists of the fabF antisense vector (Forsyth et al, 2002), with a tetracycline repressor gene and its promoter (Geissendorfer et al., Appl. Microbiol. Biotechnol 1990, 33: 657-663) inserted downstream of the fabP antisense DNA. A second plasmid, pM302, was constructed that consists of the E. coli vector pUC19 (Gibco BRL) joined to the S. aureus vector pUB110 (ATCC 37015), through the EcoR1 and AatII restriction sites. At the pUC19 multicloning site, a GFP gene was inserted into the BamH1 and SalI restriction sites and a tetracycline operator containing promoter (Geissendorfer et al, 1990) was cloned into the EcoR1 and BamH1 sites. A S. aureus strain, SafabF/GFP, was constructed that contained both plasmids pM310 and pM302 and was resistant to chloramphenicol and kanamycin. SafabF/GFP was sensitive to xylose induction resulting in an increased sensitivity to cerulenin. In the presence of cerulenin, resistant revertants will be selected for, which have deleted the antisense vector, and along with this deletion, lost the tetracycline repressor gene. […] Revertants can be measured as a function of fluorescent readout relative to cell number.
To quantitatively measure the fabF revertants, a liquid assay was developed, where various concentrations of xylose were tested with various concentrations of the following test compounds: cerulenin, thiostrepton and ampicillin. […] A 96-well plate was used to measure growth of the culture and final absorbance after 16 hours of incubation at 37° C. […] The final absorbance as read at 590 nm (A590) and fluorescence of the GFP was measured by excitation at 485 nm wavelength and emission wavelength at 535 nm (E535), using a Tecan Spectrafluor Plus.
To detect a specific GFP response in the presence of a fabF selective inhibitor, cerulenin, the Relative Fluorescence Index (RFI) was calculated for each drug treatment and for each xylose treatment. The RFI is defined as E535/A590 ratio, normalized to the corresponding ratio calculated on no-xylose control cells within each drug test group. For instance, with 15 μg/ml cerulenin treatment, the E535/A590 ratio was calculated for 0, 7 and 14 mM xylose treated cells, and the ratio for each were divided by the E535/A590 ratio from the no-xylose treated cells. […]

[2] = test system: S. aureus containing S1-1941, a plasmid expressing a xylose-inducible fabF anti-sense RNA; experiment: Agar assay for fabF-acting substances: revertant colonies in the zone of inhibition; format: cell-based, Staphylococcus aureus; conditions: for appearance of revertant colonies / zone of growth inhibition on assay plate: 10 μL sample per well, thiotetramycin 1 mg/mL in DMSO, cerulenin 20 μg/mL in DMSO, kanamycin 100 μg/mL in water, xylose 23.6 mM, overnight 37° C., visual inspection
Procedure: S. aureus containing S1-1941, a plasmid expressing a xylose-inducible fabF anti-sense RNA (described in WO 00/44906 and in Forsyth et al., Mole. Microbiol. 2002, 43: 1387-1400), are inoculated into an LB broth culture medium supplemented with […] of chloramphenicol, and grown overnight at 37° C. with shaking (225 rpm). The culture is then diluted in the LB medium to a final optical density (λ=600 nm) of 0.3. Diluted cells (750 μL) are then added to a molten LB-agar medium (30 mL) supplemented with xylose (23.6 mM) and glucose (0.19 g/100 mL) and equilibrated at 48° C. The molten mixture is briefly mixed and is then poured onto sterile disposable polystyrene 86×128 mm dishes (NUNC Cat. No. 242811), after which a TSP (=transferable solid phase screening system) casting tray (NUNC Cat. No. 445497) is placed on top to cast wells. The dishes are allowed to cool down to room temperature for about 15 minutes and are then stored for no more than 2 days at 4° C. until ready for sample dispensing. Samples (10 μL) of one or more test substances (500 μM) and samples of controls, each dissolved in 100% DMSO, are subsequently dispensed into wells and the plates incubated overnight at 37° C. The incubated plates are then inspected visually for the appearance of revertant colonies to determine whether the test substance(s) act at the fabF protein.
The fabF-targeting control will produce revertant colonies in and around a zone of inhibition, and the non-fabF targeting control will produce a clear zone of inhibition (i.e., devoid of revertant colonies). The zones of inhibition of the test substances are compared to those of the controls to screen for fabF-acting substances.
The assay protocol set forth in Part A was employed to test whether thiotetramycin is a fabF-acting antibacterial agent. A 10 μL sample of thiotetramycin dissolved in 100% DMSO (1 mg/mL) was dispensed into one well of the plate. In addition, a 10 μL sample of cerulenin in 100% DMSO (20 μg/mL) and a 10 μL sample of kanamycin in water (100 μg/mL) were respectively dispensed into two wells as controls. After incubation as described in Part A, the plates were inspected visually for zones of bacterial growth.

CC1(C)S[C@@H]2[C@H](NC(=O)[C@H](N)c3ccccc3)C(=O)N2[C@H]1C(=O)O [ampicillin]
change of RFI with increasing xylose concentration [1]: No increase in RFI

C/C=C/C/C=C/CCC(=O)[C@H]1O[C@H]1C(N)=O [cerulenin]
change of RFI with increasing xylose concentration [1]: RFI increased with increasing xylose concentration | maximum change of Relative Fluorescence Index (RFI) ([1]; 14 mM xylose and 15 μg/ml cerulenin, 16 hours at 37° C., normalized to no-xylose control cells): 9 fold | appearance of revertant colonies / zone of growth inhibition on assay plate [2]: several visually observable revertant bacterial colonies | appearance of revertant colonies / zone of growth inhibition on assay plate ([2]; listed as Cerulenin): growth of revertant colonies in and around a zone of growth inhibition

C=C(NC(=O)C(=C)NC(=O)c1csc(C2=N[C@@H]3c4csc(n4)[C@H]4NC(=O)c5csc(n5)[C@H]([C@](C)(O)[C@@H](C)O)NC(=O)[C@H]5CSC(=N5)/C(=C/C)NC(=O)[C@H]([C@@H](C)O)NC(=O)c5csc(n5)[C@]3(CC2)NC(=O)[C@H](C)NC(=O)C(=C)NC(=O)[C@H](C)NC(=O)[C@H]([C@@H](C)CC)N[C@@H]2C=Cc3c([C@H](C)O)cc(nc3[C@H]2O)C(=O)O[C@@H]4C)n1)C(N)=O [thiostrepton]
change of RFI with increasing xylose concentration [1]: No increase in RFI

thiotetramycin
appearance of revertant colonies / zone of growth inhibition on assay plate [2]: several visually observable revertant bacterial colonies | appearance of revertant colonies / zone of growth inhibition on assay plate ([2]; listed as Thiotetramycin): growth of revertant colonies which appear as small white foci of growth in and around a zone of growth inhibition | conclusion whether test substance is a fabF-acting antibacterial agent ([2]; from comparison with cerulenin and kanamycin controls): selectively targets the fabF protein

— US20060035365A1, “Method for identifying cellular growth inhibitors” (priority 2002, published 2006)
